In ChEMBL document CHEMBL4177573 (Bioorg Med Chem, 2017):
pIC50: −log10 of the molar value. Activity calls are given as the source filed them. The rule behind the calls is not given here.

Key:
[1] = Tmax in C57BL/6J mouse at 1 mg/kg, sc measured during 5 mins to 24 hrs by LC/MS/MS method; format: ADME, organism-based; conditions: in vivo
Mus musculus [2] = assay: Anorectic activity in DIO C57BL/6J mouse assessed as reduction in cumulative food intake at 0.03 mg/kg, sc for 2 weeks dosed as continuous administration by infusion of osmotic pumps relative to 0.3 mg/kg/day, sc PYY(3-36); format: functional
[3] = Cmax in C57BL/6J mouse at 1 mg/kg, sc measured during 5 mins to 24 hrs by LC/MS/MS method; format: ADME, organism-based; set-up: dose 1 mg/kg, route subcutaneous; conditions: in vivo
Mus musculus [4] = assay: Antiobesity activity in DIO C57BL/6J mouse assessed as reduction in body weight at 0.03 mg/kg, sc for 2 weeks dosed as continuous administration by infusion of osmotic pumps relative to untreated control; format: functional; conditions: 336 h
[5] = molecular target: T1, Neuropeptide Y receptor type 2 (Homo sapiens, UniProt P49146); assay: Displacement of [125I]-PYY from human neuropeptide Y2 receptor expressed in CHO cell membranes incubated for 60 mins by TopCount based method
T1 sequence (P49146 whole entry): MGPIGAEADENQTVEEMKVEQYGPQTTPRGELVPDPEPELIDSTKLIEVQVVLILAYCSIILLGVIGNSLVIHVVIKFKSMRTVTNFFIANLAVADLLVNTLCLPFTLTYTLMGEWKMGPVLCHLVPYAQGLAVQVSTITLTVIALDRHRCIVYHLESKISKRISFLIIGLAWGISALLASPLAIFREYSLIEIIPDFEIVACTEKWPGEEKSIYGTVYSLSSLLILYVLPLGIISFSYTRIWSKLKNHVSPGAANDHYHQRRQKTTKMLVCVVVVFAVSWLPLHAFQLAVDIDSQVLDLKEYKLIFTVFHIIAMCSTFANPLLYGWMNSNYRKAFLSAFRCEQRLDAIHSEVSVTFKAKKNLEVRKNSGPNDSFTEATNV

Mus musculus [6] = assay: Antiobesity activity in DIO C57BL/6J mouse assessed as reduction in mesenteric fat weight at 0.003 to 0.03 mg/kg, sc for 2 weeks dosed as continuous administration by infusion of osmotic pumps relative to untreated control; format: functional, organism-based
Mus musculus [7] = assay: Antiobesity activity in DIO C57BL/6J mouse assessed as reduction in liver weight at 0.003 to 0.03 mg/kg, sc for 2 weeks dosed as continuous administration by infusion of osmotic pumps relative to untreated control; format: functional, organism-based
Mus musculus [8] = assay: Antiobesity activity in DIO C57BL/6J mouse assessed as reduction in body weight at 0.003 to 0.03 mg/kg, sc for 2 weeks dosed as continuous administration by infusion of osmotic pumps relative to untreated control; format: functional, organism-based
[9] = AUC (0 to 24 hrs) in C57BL/6J mouse at 1 mg/kg, iv measured during 5 mins to 24 hrs by LC/MS/MS method; format: ADME, organism-based; set-up: dose 1 mg/kg, time < 24 hr, route intravenous; conditions: in vivo

Tmax [1]: 10.2 min | Cmax [3]: 452 nM | pIC50 [5]: 9.51 | AUC(0-t) at 24 h [9]: 0.577 µM·h
SMILES: CC[C@](C)(NC(=O)[C@H]1C[C@H](O)CN1C(=O)[C@H](CO)NC(=O)c1c[nH]cn1)C(=O)N[C@@H](Cc1ccncc1)C(=O)N[C@@H](CC1CCCCC1)C(=O)N[C@@H](CC(C)(C)C)C(=O)N[C@@H](CC(N)=O)C(=O)N[C@@H](CCCCN)C(=O)NC(C)(C)C(=O)N[C@H](C(=O)N[C@@H](CCCNC(=N)N)C(=O)N[C@@H](CCC(N)=O)C(=O)N[C@@H](CCCNC(=N)N)C(=O)N[C@@H](CC1CCCCC1)C(N)=O)[C@@H](C)O
fold change (FC) (Mus musculus [2]): 30 | inhibition in vivo at 0.03 mg/kg (Mus musculus [4]): 15.1% | Activity (Mus musculus [6]): Active | Activity (Mus musculus [7]): Active | Activity (Mus musculus [8]): Dose-dependent effect
